Data published in ChEMBL document CHEMBL1201862, “PubChem BioAssay data set” (2004).
The source made the active and inactive calls.

Assays:
cells [1] = assay type: functional, cell-based; settings: HEK-CNG
Galanin receptor type 3 = biological target: T1, Galanin receptor type 3 (Homo sapiens, UniProt O60755); assay: Fluorescence-based cell-based primary high throughput dose response assay to identify antagonists of the Galanin Receptor 3 (GalR3).; assay type: functional
T1 sequence (O60755 whole entry): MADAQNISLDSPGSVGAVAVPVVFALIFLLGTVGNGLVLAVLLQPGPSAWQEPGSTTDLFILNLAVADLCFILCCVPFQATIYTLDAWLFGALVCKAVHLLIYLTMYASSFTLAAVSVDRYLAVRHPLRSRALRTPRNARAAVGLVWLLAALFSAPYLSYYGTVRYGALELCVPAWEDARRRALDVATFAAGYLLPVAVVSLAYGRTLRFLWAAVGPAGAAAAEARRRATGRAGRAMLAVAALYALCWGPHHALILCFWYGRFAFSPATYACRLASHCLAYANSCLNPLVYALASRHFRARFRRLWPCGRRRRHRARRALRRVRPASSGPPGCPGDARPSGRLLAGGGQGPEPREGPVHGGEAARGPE

[2] = non-specific 3'UTR reporter inhibition in Clone20-Shn3RL – cell-based, Renilla luciferase, cherry-picked, counter-screen for Shn3 inhibitor project, dose response (AID 624133); assay type: functional
[3] = reduction of Shn3 3'UTR-driven luciferase in osteoblasts – cell-based, Clone20 osteoblasts, firefly luciferase, cherry-picked, dose response (AID 624132); assay type: functional;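 note: firefly luciferase luminescence from reporter carrying the Shn3 3'UTR in osteoblasts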
BJ [4] = assay: BJ-TERT fibroblast viability loss – cell-based, RAS-independent, luminescence, dose response (AID 1933); assay type: functional; settings: Homo sapiens
BJ [5] = assay: cells; assay type: functional, cell-based; settings: Homo sapiens
BJ [6] = assay: BJ-TERT-LT-ST fibroblast viability loss – cell-based, RAS-independent, luminescence, dose response (AID 1935); assay type: functional; settings: Homo sapiens;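 note: BJ fibroblasts immortalized with TERT plus LT and ST oncogenes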
INS1 = assay: INS-1E survival protection against cytokine death – cell-based, luminescence, retest, dose response (AID 449756); assay type: functional; settings: Rattus norvegicus;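 note: cell death triggered by IL-1 beta plus TNF-alpha plus IFN-gamma mixture; protective hits raise ATP signal compared with cytokine alone wells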
[7] = loss of viability in HepG2 cells – cell-based, CellTiter-Glo, cherry-picked, cytotoxicity control for Shn3 inhibitor project, dose response (AID 624134); assay type: functional
[8] = HEK-293T viability loss after treatment – luminescence, T-cell screen hits, cytotoxicity control for TCR NF-kB inhibitor project, dose response (AID 489026); assay type: functional, cell-based;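 note: cells exposed to compound about 14 hours before the viability readout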
[9] = DRD fibroblast viability loss – cell-based, non-viral oncogenic, luminescence, dose response (AID 1934); assay type: functional; settings: Homo sapiens
[10] = biological target: T2, DNA repair and recombination protein RAD54-like (Homo sapiens, UniProt Q92698); assay: RAD54 Holliday junction migration blockers – biochemical, fluorescence, cherry-picked samples, dose series, confirmation (AID 651657); assay type: functional
T2 sequence (Q92698 whole entry): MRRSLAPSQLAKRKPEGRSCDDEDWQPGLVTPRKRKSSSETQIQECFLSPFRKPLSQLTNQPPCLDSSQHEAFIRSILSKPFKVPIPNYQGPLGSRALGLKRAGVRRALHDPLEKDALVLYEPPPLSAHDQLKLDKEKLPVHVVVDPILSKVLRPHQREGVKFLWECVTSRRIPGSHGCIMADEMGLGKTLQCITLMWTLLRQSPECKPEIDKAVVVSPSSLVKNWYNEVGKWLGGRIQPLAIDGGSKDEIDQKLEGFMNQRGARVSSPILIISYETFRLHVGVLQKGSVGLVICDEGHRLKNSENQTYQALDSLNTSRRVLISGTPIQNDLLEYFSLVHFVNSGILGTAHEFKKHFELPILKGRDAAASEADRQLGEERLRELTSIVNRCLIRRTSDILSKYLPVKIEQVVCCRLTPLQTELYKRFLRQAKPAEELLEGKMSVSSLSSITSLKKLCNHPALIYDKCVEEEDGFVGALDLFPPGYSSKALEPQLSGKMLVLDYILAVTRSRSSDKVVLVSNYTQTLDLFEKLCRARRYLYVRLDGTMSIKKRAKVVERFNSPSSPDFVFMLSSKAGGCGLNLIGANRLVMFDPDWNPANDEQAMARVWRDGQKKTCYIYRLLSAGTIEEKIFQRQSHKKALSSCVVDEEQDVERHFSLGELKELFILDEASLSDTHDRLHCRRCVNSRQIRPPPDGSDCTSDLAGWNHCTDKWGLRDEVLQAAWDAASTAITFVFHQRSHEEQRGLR

[11] = NIH3T3 cell viability loss – ATP luminescence, mouse fibroblasts, counter-screen, dose response (AID 2010); assay type: functional, cell-based;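 note: cells exposed to compound for about 90 hours before reading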
[12] = Trypanosoma cruzi growth suppression in host cells – NIH3T3 host cells, beta-gal luminescence, confirmation (AID 2044); assay type: functional, cell-based;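 note: intracellular parasites grown in NIH/3T3 mouse fibroblasts as host cells; luminescent beta-galactosidase reporter signal from transgenic T. cruzi replicating inside host cells; inhibitors lower the luminescence signal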
[13] = biological target: Photoreceptor-specific nuclear receptor (Homo sapiens, UniProt Q9Y5X4); assay type: functional, cell-based;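 note: CHO-S cells with Gal4-NCOR and VP16-NR2E3 two-hybrid luciferase reporter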
Chain of Photoreceptor-specific nuclear receptor (Q9Y5X4 whole entry, the tested form may be a part): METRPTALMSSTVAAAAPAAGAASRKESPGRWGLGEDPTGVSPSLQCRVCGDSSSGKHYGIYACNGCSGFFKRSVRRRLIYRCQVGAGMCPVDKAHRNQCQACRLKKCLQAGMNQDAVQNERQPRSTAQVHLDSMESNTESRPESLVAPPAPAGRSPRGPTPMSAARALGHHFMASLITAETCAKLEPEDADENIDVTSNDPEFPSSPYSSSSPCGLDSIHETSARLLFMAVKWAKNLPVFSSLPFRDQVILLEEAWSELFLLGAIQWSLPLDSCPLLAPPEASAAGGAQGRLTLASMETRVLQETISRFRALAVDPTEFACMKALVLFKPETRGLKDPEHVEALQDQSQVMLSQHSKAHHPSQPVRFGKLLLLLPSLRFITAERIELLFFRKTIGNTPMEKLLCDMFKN

[14] = biological target: T3, Low molecular weight phosphotyrosine protein phosphatase (Homo sapiens, UniProt P24666); assay type: functional; settings: read-out: IC50_Mean
T3 sequence (P24666 whole entry): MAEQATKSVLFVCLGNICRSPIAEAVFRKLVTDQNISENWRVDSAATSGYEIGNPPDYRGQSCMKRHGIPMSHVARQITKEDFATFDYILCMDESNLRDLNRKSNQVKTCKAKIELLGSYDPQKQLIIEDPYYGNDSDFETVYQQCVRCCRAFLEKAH

cells [15] = assay: cells
[16] = biological target: T3, Low molecular weight phosphotyrosine protein phosphatase; assay type: functional; settings: read-out: IC50_Mean; remark: listed apart in the source
[17] = viability of uninfected HEp-2 cells – cell-based, HTS, cytotoxicity control for RSV inhibitor project, dose response (AID 2410); assay type: functional; settings: human respiratory syncytial virus
[18] = biological target: T4, High affinity choline transporter 1 (Homo sapiens, UniProt Q9GZV3); assay: human choline transporter blockers, potency – cell-based, 5-point CRC, membrane potential dye, dose response (AID 504840); assay type: functional
T4 sequence (Q9GZV3 whole entry): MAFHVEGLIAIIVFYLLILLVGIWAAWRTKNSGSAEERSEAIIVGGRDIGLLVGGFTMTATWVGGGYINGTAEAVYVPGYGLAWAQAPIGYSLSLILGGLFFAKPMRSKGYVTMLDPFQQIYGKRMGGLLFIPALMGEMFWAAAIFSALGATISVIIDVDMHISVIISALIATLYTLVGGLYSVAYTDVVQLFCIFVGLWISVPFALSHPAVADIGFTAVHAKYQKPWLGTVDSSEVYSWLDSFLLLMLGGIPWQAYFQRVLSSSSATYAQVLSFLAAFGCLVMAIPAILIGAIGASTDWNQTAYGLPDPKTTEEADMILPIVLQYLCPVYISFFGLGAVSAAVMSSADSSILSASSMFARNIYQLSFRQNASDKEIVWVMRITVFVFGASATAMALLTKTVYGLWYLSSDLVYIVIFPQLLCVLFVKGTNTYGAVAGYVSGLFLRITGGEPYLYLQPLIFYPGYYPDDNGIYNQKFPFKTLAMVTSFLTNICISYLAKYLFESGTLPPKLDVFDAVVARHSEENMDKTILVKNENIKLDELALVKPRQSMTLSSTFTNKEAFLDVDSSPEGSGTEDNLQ

[19] = biological target: T5, Corticotropin-releasing factor receptor 2/Corticotropin-releasing factor-binding protein (Homo sapiens, UniProt P24387+Q13324); assay: Dose Response confirmation of uHTS hits for small molecule antagonists of the CRF-binding protein and CRF-R2 receptor complex.; assay type: functional; settings: read-out: IC50_Mean
T5 sequence (Q13324 whole entry): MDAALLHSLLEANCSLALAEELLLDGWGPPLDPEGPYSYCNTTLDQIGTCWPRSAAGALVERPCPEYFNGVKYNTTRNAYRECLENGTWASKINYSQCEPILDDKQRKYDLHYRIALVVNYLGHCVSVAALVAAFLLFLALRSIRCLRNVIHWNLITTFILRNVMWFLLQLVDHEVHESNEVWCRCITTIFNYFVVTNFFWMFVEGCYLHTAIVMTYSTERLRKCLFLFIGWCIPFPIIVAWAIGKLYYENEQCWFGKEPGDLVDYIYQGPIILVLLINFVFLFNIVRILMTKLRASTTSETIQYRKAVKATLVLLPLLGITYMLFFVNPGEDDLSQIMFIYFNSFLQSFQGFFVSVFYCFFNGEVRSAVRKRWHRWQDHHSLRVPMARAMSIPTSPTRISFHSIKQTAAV
T5 sequence (P24387 whole entry): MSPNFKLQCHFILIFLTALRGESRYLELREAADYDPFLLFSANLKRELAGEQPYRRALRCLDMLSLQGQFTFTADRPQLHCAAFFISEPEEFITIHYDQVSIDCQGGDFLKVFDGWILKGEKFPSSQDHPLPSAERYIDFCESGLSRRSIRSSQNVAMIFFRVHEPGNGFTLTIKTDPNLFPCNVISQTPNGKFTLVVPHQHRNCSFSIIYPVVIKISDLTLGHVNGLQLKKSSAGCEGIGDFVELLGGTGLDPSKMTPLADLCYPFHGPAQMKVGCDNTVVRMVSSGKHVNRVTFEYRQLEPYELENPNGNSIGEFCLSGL

Aminopeptidase N = biological target: T6, Aminopeptidase N (Plasmodium falciparum FcB1/Columbia, UniProt O96935); assay: malaria alanyl aminopeptidase activity blockers – biochemical, fluorogenic H-Leu-NHMec substrate, 1536-well (AID 1445); design: species or system Plasmodium falciparum 3D7, 3D7
T6 sequence (O96935 whole entry): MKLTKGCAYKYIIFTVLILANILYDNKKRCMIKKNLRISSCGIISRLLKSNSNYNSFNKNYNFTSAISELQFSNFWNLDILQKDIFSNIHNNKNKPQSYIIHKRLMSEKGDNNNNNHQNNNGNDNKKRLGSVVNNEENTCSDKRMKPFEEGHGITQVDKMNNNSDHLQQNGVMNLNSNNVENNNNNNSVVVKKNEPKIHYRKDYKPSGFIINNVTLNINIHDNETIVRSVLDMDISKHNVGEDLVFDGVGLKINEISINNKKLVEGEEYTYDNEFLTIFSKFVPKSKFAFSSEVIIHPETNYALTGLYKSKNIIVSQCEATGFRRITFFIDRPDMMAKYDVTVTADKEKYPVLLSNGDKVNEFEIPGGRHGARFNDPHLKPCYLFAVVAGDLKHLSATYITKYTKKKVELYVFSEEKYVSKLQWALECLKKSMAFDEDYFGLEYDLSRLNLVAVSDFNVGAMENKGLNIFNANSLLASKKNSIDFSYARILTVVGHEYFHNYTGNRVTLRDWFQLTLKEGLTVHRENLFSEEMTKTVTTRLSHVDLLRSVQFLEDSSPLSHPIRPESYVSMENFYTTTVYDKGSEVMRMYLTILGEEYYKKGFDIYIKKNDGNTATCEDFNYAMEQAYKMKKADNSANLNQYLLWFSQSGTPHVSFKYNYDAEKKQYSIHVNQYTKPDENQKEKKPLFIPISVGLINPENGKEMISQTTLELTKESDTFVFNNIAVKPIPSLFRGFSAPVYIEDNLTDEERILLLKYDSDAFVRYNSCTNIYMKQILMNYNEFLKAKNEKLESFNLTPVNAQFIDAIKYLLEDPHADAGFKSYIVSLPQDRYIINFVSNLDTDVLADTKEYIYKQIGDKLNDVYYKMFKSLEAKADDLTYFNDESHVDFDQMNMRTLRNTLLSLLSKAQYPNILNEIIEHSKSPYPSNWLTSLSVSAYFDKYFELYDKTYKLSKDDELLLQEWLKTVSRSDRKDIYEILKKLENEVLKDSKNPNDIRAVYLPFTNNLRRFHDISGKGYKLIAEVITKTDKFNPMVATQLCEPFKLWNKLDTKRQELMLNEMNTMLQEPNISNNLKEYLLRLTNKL

[20] = biological target: T5, Corticotropin-releasing factor receptor 2/Corticotropin-releasing factor-binding protein; assay: activators of CRF receptor 2 with binding protein – uHTS hits, confirmation (AID 602473); assay type: functional; settings: read-out: EC50_Mean
[21] = blockers of CRF-binding protein–CRF-R2 complex – cell-based, uHTS hits, 384-well, dose response (AID 651639); assay type: functional, Homo sapiens; settings: read-out: IC50_Mean

In the case of `O=S(=O)(c1ccc2c(c1)OCCO2)N1CCN(c2ncnc3sccc23)CC1`, the EC50 (cells [1]) is reported as > 29.9 µM (inactive), the IC50 (Galanin receptor type 3) is reported as 2.06 µM (active) and the AC50 [2] is reported as 29.6 µM (active). For the same molecule, the AC50 [3] was 1.45 µM (active), the EC50 (BJ [4]) was > 150 µM (not active) and the EC50 (BJ [5]) was > 150 µM (not active). The EC50 (BJ [6]) was > 150 µM (not active), the AC50 (INS1) was 3.37 µM (active) and the AC50 [7] was 3.21 µM (active). For the same molecule, the IC50 [8] was > 80 µM (inactive) and the EC50 [9] was > 150 µM (not active).

With `CCN1CCN(C(S)=Nc2ccc3nc(N4CCN(CC)CC4)cc(C)c3c2)CC1` the AC50 [10] was 95 µM (active).

With `Cc1nn(Cc2cccc(F)c2)c(C)c1NC(=O)c1ccc(COc2ccccc2Cl)cc1` the EC50 [11] was 40.4 µM (active), the EC50 [12] was 1.26 µM (active) and the IC50 [13] was 2.85 µM (active).

With `O=C(O)c1cccc(NC(=O)c2cn(-c3ccccc3)nc2-c2cc3ccccc3o2)c1` the IC50 [14] was 18 µM (active), the IC50 (cells [15]) was 20.9 µM (active) and the IC50 [16] was 43 µM (inactive). For the same molecule, the CC50 [17] was 33 µM (active).

With `O=C(Nc1cc(S(=O)(=O)N2CCCCC2)ccc1O)c1ccccc1NS(=O)(=O)c1ccc(F)c(F)c1` the IC50 [18] was 12.6 µM (active), the IC50 [19] was 5.71 µM (active) and the IC50 (Aminopeptidase N) was 69.4 µM (active). The EC50 [20] was 7.48 µM (active) and the IC50 [21] was > 20 µM (inactive).
